This note sets out measurements from patent publication US5854216A, “Marker for growth hormone-releasing factor receptors” (Universite de Montreal, priority 1996, dated 1998).

The target of this test is T1, GRF receptors ([^125 I-Tyr^10 ]hGRF(1-44)NH2 binding sites in rat adenopituitary) (Rattus norvegicus, UniProt Q02644).
T1 construct: from tissue; host or cells: rat anterior pituitary homogenate
T1 sequence (Q02644 23-423 isoform Q02644-2 limits assumed): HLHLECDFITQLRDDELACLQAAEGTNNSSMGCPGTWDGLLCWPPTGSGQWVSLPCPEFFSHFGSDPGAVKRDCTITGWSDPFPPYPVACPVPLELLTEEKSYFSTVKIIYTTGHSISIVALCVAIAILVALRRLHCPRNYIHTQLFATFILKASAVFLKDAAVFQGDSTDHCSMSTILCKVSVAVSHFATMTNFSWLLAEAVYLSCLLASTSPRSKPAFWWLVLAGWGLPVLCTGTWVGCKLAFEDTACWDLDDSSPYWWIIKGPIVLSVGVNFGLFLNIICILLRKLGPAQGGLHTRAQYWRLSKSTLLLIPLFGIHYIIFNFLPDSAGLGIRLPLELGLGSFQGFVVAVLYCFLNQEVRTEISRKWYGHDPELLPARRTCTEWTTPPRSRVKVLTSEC
The test can be described thus: Competitive binding assay with [^125 I-Tyr^10 ]hGRF(1-44)NH2 on anterior pituitary homogenates. The conditions noted are these: for Relative affinity: ratio IC50 of hGRF(1-29)NH2 /IC50 analogue; for biological activity compared to that of native GRF: rat adenopituitary. The method, then:
The binding of [^125 I-Tyr^10 ]hGRF(1-44)NH2 was performed on anterior pituitary homogenates as previously described (Gaudreau P. et al., J. Biol. Chem., 1992, 35:1864-1869). Briefly, anterior pituitaries (pit.) were dissected out, rinsed and homogenized for 8 sec with a Micro Ultrasonic Cell Disrupter™, in ice-cold 50 mM Tris-HCl buffer, pH 7.4, containing 5 mM MgCl2 and 5 mM EDTA (1 pit./0.5 ml). These homogenates were used immediately. Competition studies were performed using 35-50 pM [^125 I-Tyr^10 ]hGRF(1-44)NH2 as radio-ligand,50 μl of homogenate (70 to 75 μg of protein), and increasing concentrations of Nε-CF-[Lys^31 ]hGRF or other GRF analogues (0-1000 nM) or with 2.4 μM rGRF(1-29)NH2 for determination of non-specific binding, in a total volume of 300 μl of Tris-HCl buffer, pH 7.4, containing 5 mM EDTA, 5 mM MgCl2 and 0.42% BSA. Incubations were carried out at 23° C. for 60 min and stopped by centrifugation (12,000 g, 5 min, at 4° C.). The radioactivity content in the pellet was measured by gamma counting. The affinity of hGRF(1-29)NH2 was tested in each experiment to assess the validity of the assay and determine the relative affinity of the analogues. […] The Hill values indicate that all these peptides bind to the high and low affinity GRF binding sites found in the anterior pituitary.

Where [1] appears, read: Table 11, mean±SD of 2 or mean±SE of 3 experiments for analogues, mean±SE of 11 for hGRF(1-29)NH2.

SMILES strings stand for the structures. Square brackets hold non-standard residues; d marks the D form. Peptide text beside a SMILES is read from it. Bpa = N[C@@H](Cc1ccc(C(=O)c2ccccc2)cc1)C(=O)O; Nle = CCCC[C@H](N)C(=O)O

As a reminder, the IC50 is the concentration needed to halve the response being measured. A high value points to weaker potency.

Consider `CC[C@H](C)[C@H](NC(=O)[C@H](C)NC(=O)[C@H](CC(=O)O)NC(=O)[C@@H](C)NC(=O)[C@@H](N)Cc1ccc(O)cc1)C(=O)N[C@@H](Cc1ccccc1)C(=O)N[C@H](C(=O)N[C@@H](CC(N)=O)C(=O)N[C@@H](CO)C(=O)N[C@H](Cc1ccc(O)cc1)C(=O)N[C@@H](CCCNC(=N)N)C(=O)N[C@@H](CCCCN)C(=O)N[C@H](C(=O)N[C@@H](CC(C)C)C(=O)NCC(=O)N[C@@H](CCC(N)=O)C(=O)N[C@@H](CC(C)C)C(=O)N[C@@H](CO)C(=O)N[C@@H](C)C(=O)N[C@@H](CCCNC(=N)N)C(=O)N[C@H](CCCCN)C(=O)N[C@@H](CC(C)C)C(=O)N[C@@H](CC(C)C)C(=O)N[C@@H](CCC(N)=O)C(=O)N[C@@H](CC(=O)O)C(=O)N[C@H](C(=O)N[C@@H](CCSC)C(=O)N[C@@H](CO)C(=O)N[C@@H](CCCNC(=N)N)C(N)=O)[C@@H](C)CC)C(C)C)[C@@H](C)O` [D-Ala^2, D-Tyr^10, D-Lys^21], for which the “biological activity compared to that of native GRF” value is listed as “preserved or increased”. In addition, where the note is “Table 11”, the Hill coef. was determined as 0.64 ± 0.05 and the Relative affinity stood at 21 ± 11%.

Under setting [1], `CC[C@H](C)[C@H](NC(=O)[C@H](C)NC(=O)[C@H](CC(=O)O)NC(=O)[C@@H](C)NC(=O)[C@@H](N)Cc1ccc(O)cc1)C(=O)N[C@@H](Cc1ccccc1)C(=O)N[C@H](C(=O)N[C@@H](CC(N)=O)C(=O)N[C@@H](CO)C(=O)N[C@H](Cc1ccc(O)cc1)C(=O)N[C@@H](CCCNC(=N)N)C(=O)N[C@@H](CCCCN)C(=O)N[C@H](C(=O)N[C@@H](CC(C)C)C(=O)NCC(=O)N[C@@H](CCC(N)=O)C(=O)N[C@@H](CC(C)C)C(=O)N[C@@H](CO)C(=O)N[C@@H](C)C(=O)N[C@@H](CCCNC(=N)N)C(=O)N[C@@H](CCCCN)C(=O)N[C@@H](CCCCN)C(=O)N[C@@H](CC(C)C)C(=O)N[C@@H](CCC(N)=O)C(=O)N[C@@H](CC(=O)O)C(=O)N[C@H](C(=O)N[C@@H](CCSC)C(=O)N[C@@H](CO)C(=O)N[C@@H](CCCNC(=N)N)C(N)=O)[C@@H](C)CC)C(C)C)[C@@H](C)O` [D-Ala^2, D-Tyr^10, Lys^22] (H-Y[dA]DAIFTNS[dY]RKVLGQLSARKKLQDIMSR-NH2) displayed an IC50 of 0.49 ± 0.27 nM.

In the case of `CC[C@H](C)[C@H](NC(=O)[C@H](C)NC(=O)[C@H](CC(=O)O)NC(=O)[C@@H](C)NC(=O)[C@@H](N)Cc1ccc(O)cc1)C(=O)N[C@@H](Cc1ccccc1)C(=O)N[C@H](C(=O)N[C@@H](CC(N)=O)C(=O)N[C@@H](CO)C(=O)N[C@H](Cc1ccc(O)cc1)C(=O)N[C@@H](CCCNC(=N)N)C(=O)N[C@@H](CCCCN)C(=O)N[C@H](C(=O)N[C@@H](CC(C)C)C(=O)NCC(=O)N[C@@H](CCC(N)=O)C(=O)N[C@@H](CC(C)C)C(=O)N[C@@H](CO)C(=O)N[C@@H](C)C(=O)N[C@@H](CCCNC(=N)N)C(=O)N[C@@H](CCCCN)C(=O)N[C@@H](CC(C)C)C(=O)N[C@@H](CC(C)C)C(=O)N[C@@H](CCC(N)=O)C(=O)N[C@@H](CC(=O)O)C(=O)N[C@H](C(=O)N[C@@H](CCSC)C(=O)N[C@@H](CO)C(=O)N[C@@H](CCCNC(=N)N)C(N)=O)[C@@H](C)CC)C(C)C)[C@@H](C)O` [D-Ala^2, D-Tyr^10], the “biological activity compared to that of native GRF” value is on record as “preserved or increased”. In addition, where the note is “Table 11”, the Hill coef. stood at 0.41 ± 0.02 and the Relative affinity came out at 25 ± 3%.

As for `CCCC[C@H](NC(=O)[C@@H](NC(=O)[C@H](CC(=O)O)NC(=O)[C@H](CCC(N)=O)NC(=O)[C@H](CC(C)C)NC(=O)[C@H](CC(C)C)NC(=O)[C@H](CCCCN)NC(=O)[C@H](CCCNC(=N)N)NC(=O)[C@H](C)NC(=O)[C@H](CO)NC(=O)[C@H](CC(C)C)NC(=O)[C@H](CCC(N)=O)NC(=O)CNC(=O)[C@H](CC(C)C)NC(=O)[C@@H](NC(=O)[C@H](CCCCN)NC(=O)[C@H](CCCNC(=N)N)NC(=O)[C@H](Cc1ccc(O)cc1)NC(=O)[C@H](Cc1ccc(C(=O)c2ccccc2)cc1)NC(=O)[C@H](CC(N)=O)NC(=O)[C@@H](NC(=O)[C@H](Cc1ccccc1)NC(=O)[C@@H](NC(=O)[C@H](C)NC(=O)[C@H](CC(=O)O)NC(=O)[C@H](C)NC(=O)[C@@H](N)Cc1c[nH]cn1)[C@@H](C)CC)[C@@H](C)O)C(C)C)[C@@H](C)CC)C(=O)N[C@@H](CO)C(=O)N[C@@H](CCCNC(=N)N)C(N)=O` [His^1, bpa^9, Nle^27] (H-HADAIFTN[Bpa]YRKVLGQLSARKLLQDI[Nle]SR-NH2), where the note is “Table 7”, the Hill coef. was 0.70 ± 0.06 and the Relative affinity was 61.0 ± 7%.

On to `CC[C@H](C)[C@H](NC(=O)[C@H](C)NC(=O)[C@H](CC(=O)O)NC(=O)[C@H](C)NC(=O)[C@@H](N)Cc1ccc(O)cc1)C(=O)N[C@@H](Cc1ccccc1)C(=O)N[C@H](C(=O)N[C@@H](CC(N)=O)C(=O)N[C@@H](CO)C(=O)N[C@@H](Cc1ccc(O)cc1)C(=O)N[C@@H](CCCNC(=N)N)C(=O)N[C@@H](CCCCN)C(=O)N[C@H](C(=O)N[C@@H](CC(C)C)C(=O)NCC(=O)N[C@@H](CCC(N)=O)C(=O)N[C@@H](CC(C)C)C(=O)N[C@@H](CO)C(=O)N[C@@H](C)C(=O)N[C@@H](CCCNC(=N)N)C(=O)N[C@@H](CCCCN)C(=O)N[C@@H](CC(C)C)C(=O)N[C@@H](CC(C)C)C(=O)N[C@@H](CCC(N)=O)C(=O)N[C@@H](CC(=O)O)C(=O)N[C@H](C(=O)N[C@@H](CCSC)C(=O)N[C@@H](CO)C(=O)N[C@@H](CCCNC(=N)N)C(=O)NCCCCCCCC(=O)N[C@@H](CS)C(N)=O)[C@@H](C)CC)C(C)C)[C@@H](C)O` [Octanoyl^30, Cys^31, [octanoyl^30,Cys^31] hGRF(1-29)NH2], for which the 50% inhibitory concentration (IC50) under setting [1] turned out to be 6.84 ± 2.12 nM.

Turning to `CC[C@H](C)[C@H](NC(=O)[C@H](C)NC(=O)[C@H](CC(=O)O)NC(=O)[C@H](C)NC(=O)[C@H](Cc1ccc(O)cc1)NC(=S)Nc1ccc(-c2c3ccc(=O)cc-3oc3cc(O)ccc23)c(C(=O)O)c1)C(=O)N[C@@H](Cc1ccccc1)C(=O)N[C@H](C(=O)N[C@@H](CC(N)=O)C(=O)N[C@@H](CO)C(=O)N[C@@H](Cc1ccc(O)cc1)C(=O)N[C@@H](CCCNC(=N)N)C(=O)N[C@@H](CCCCN)C(=O)N[C@H](C(=O)N[C@@H](CC(C)C)C(=O)NCC(=O)N[C@@H](CCC(N)=O)C(=O)N[C@@H](CC(C)C)C(=O)N[C@@H](CO)C(=O)N[C@@H](C)C(=O)N[C@@H](CCCNC(=N)N)C(=O)N[C@@H](CCCCN)C(=O)N[C@@H](CC(C)C)C(=O)N[C@@H](CC(C)C)C(=O)N[C@@H](CCC(N)=O)C(=O)N[C@@H](CC(=O)O)C(=O)N[C@H](C(=O)N[C@@H](CCSC)C(=O)N[C@@H](CO)C(=O)N[C@@H](CCCNC(=N)N)C(N)=O)[C@@H](C)CC)C(C)C)[C@@H](C)O` [[Nα-fluorescein-5-thiocarbamyl]hGRF(1-29)NH2], for the setting “Table 4”, the Hill coef. was 0.61 ± 0.05 and the Relative affinity is recorded as 19 ± 11%.

With `CC[C@H](C)[C@H](NC(=O)[C@H](C)NC(=O)[C@H](CC(=O)O)NC(=O)[C@H](C)NC(=O)[C@H](Cc1ccc(O)cc1)NC(=S)Nc1ccc2c(c1)C(=O)OC21c2ccc(O)cc2Oc2cc(O)ccc21)C(=O)N[C@@H](Cc1ccccc1)C(=O)N[C@H](C(=O)N[C@@H](CC(N)=O)C(=O)N[C@@H](CO)C(=O)N[C@@H](Cc1ccc(O)cc1)C(=O)N[C@@H](CCCNC(=N)N)C(=O)N[C@@H](CCCCN)C(=O)N[C@H](C(=O)N[C@@H](CC(C)C)C(=O)NCC(=O)N[C@@H](CCC(N)=O)C(=O)N[C@@H](CC(C)C)C(=O)N[C@@H](CO)C(=O)N[C@@H](C)C(=O)N[C@@H](CCCNC(=N)N)C(=O)N[C@@H](CCCCN)C(=O)N[C@@H](CC(C)C)C(=O)N[C@@H](CC(C)C)C(=O)N[C@@H](CCC(N)=O)C(=O)N[C@@H](CC(=O)O)C(=O)N[C@H](C(=O)N[C@@H](CCSC)C(=O)N[C@@H](CO)C(=O)N[C@@H](CCCNC(=N)N)C(=O)N[C@@H](CCC(N)=O)C(=O)N[C@@H](CCC(N)=O)C(=O)NCC(=O)N[C@@H](CCC(=O)O)C(=O)N[C@@H](CO)C(=O)N[C@@H](CC(N)=O)C(=O)N[C@@H](CCC(N)=O)C(=O)N[C@@H](CCC(=O)O)C(=O)N[C@@H](CCCNC(=N)N)C(=O)NCC(=O)N[C@@H](C)C(=O)N[C@@H](CCCNC(=N)N)C(=O)N[C@@H](C)C(=O)N[C@@H](CCCNC(=N)N)C(=O)N[C@@H](CC(C)C)C(N)=O)[C@@H](C)CC)C(C)C)[C@@H](C)O` [[Nα-fluorescein-5-thiocarbamyl]hGRF(1-44)NH2], the “affinity for adenopituitary GRF receptors (in words)” value is “nanomolar affinity”. Besides, under “Table 4”, the Hill coef. came to 0.63 ± 0.07 and the Relative affinity is given as 19 ± 5%. In addition, the IC50 (Table 4, mean±SD of 2 experiments in triplicate for analogues, mean±SE of 29 experiments for hGRF(1-29)NH2) turned out to be 14 ± 4 nM.
